From paper PMC11170954, “Effect of Peptide–Polymer Host–Guest Electrostatic Interactions on Self-Assembling Peptide Hydrogels Structural and Mechanical Properties and Polymer Diffusivity” (Biomacromolecules, 2024)
Ends that are not written are not given here.

Assays:
[1] = Peptide titration with NaOH (pKa-like transitions, net charge assignment); type: physicochemical; details: stepwise NaOH addition to peptide solution in HPLC grade water; for first pKa-like transition (deprotonation of glutamic acid side groups), pH: start pH ∼3.2, transition observed up to this pH
Procedure: Peptide titration experiments were performed by adding 0.1 or 0.5 M NaOH solutions in 1–2 μL steps to a 1 mL HPLC-grade water peptide solution with a 2 mg mL^–1 starting concentration. After each NaOH addition, the samples were vigorously agitated using a vortex to ensure homogeneous mixing and the pH was measured using a Fisherbrand Hydrus 300 benchtop pH meter.
As stated in the introduction, these two peptides were designed to be “symmetrical” in relation to the position and distribution of their anionic (COOH/COO^–) and cationic (NH3^+/NH2) groups and to carry an overall theoretical net charge modulus of 1 at pH 7. As shown in our previous work, self-assembly can induce a shift in pKa of these ionic groups depending on the surrounding environment created.[26],[38] To investigate the effect of self-assembly on pKa of these groups, titration experiments were performed on each peptide at a […] concentration. The resulting curves are presented in Figure 2A, B. Both peptides were purchased as HCl salts; therefore, when dissolved in water low pH, ∼ 3.2, solutions were obtained. Upon addition of NaOH a first pKa-like transition was observed up to pH 5 for K(FEFK)2 and pH 4.5 for E(FKFE)2. This first transition is associated in both cases with deprotonation of the glutamic acid side groups.

[2] = Small-angle X-ray scattering of hydrogels; type: physicochemical; details: for fibers cross-section radius of gyration, Rσ: SAXS Guinier fit, hydrogels 6 mg mL^–1, pH 7; for estimated fiber diameter, df: from Rσ assuming cylindrical geometry
Procedure: SAXS experiments were performed on beamline I22 at the diamond light source (DLS) synchrotron (Didcot, UK).[31] The energy of the beam was 12.4 keV, corresponding to an X-ray wavelength of 0.1 nm. Quartz capillaries (1.5 mm outer diameter and 0.01 mm wall thickness) from Capillary Tube Supplies Ltd. (Bodmin, UK) were used as sample holders. The samples were prepared as described earlier and injected into the capillaries using a syringe. The sample-to-detector distance was fixed to 5.77 m, corresponding to an accessible momentum transfer vector range of 0.1 nm^–1 < q = (4π/λ) sin(θ/2) < 3.0 nm^–1, where θ is the scattering angle and λ is the wavelength of the incident photons. Calibration of the SAXS detector (Pilatus P3–2M, Dectris, Switzerland) was performed using silver behenate powder, and data were collected as 10 × 100 ms frames. Data were reduced using the Dawn software suite available from DLS.[32] The 2D isotropic scattering patterns were corrected for the detector response, dark current background, and sample transmission and then azimuthally integrated to generate 1D scattering patterns. Under these conditions, the sample coherent normalized scattering intensity IN(q) is [drawing 2] 1 where Ip(q) is the normalized intensity scattered by the sample, Is(q) is the normalized intensity scattered by the solvent in our case HPLC grade water, Cp is the peptide concentration in g cm^–3, and Ib is the background scattering originating mainly from the incoherent scattering of the peptides. Is(q) was obtained by measuring the scattering of the solvent, HPLC grade water, and Ib was estimated using the Porod law that gives the scattered intensity of a two-phase system at high q values: [drawing 3] 2 where Kp is the Porod constant. Ib was estimated by fitting the last 40 data points of the 1D scattering patter using a Porod plot [q^4I(q) vs q^4].[33]−[36]
The formation of fibers and fibrillar entangle networks was confirmed by SAXS and TEM. […] From a Guinier representation, ln qI(q) vs q^2, the fibers cross-section radius of gyration, Rσ, can be obtained. Indeed, it has been shown that for thin rod-like structures for qRσ < 1 the scattering intensity can be written as[34],[39] [drawing 4] 3
From the fitting of the linear region, Rσ values of 1.2 ± 0.2 nm for K(FEFK)2 and 1.4 ± 0.2 nm for E(FKFE)2 were obtained. Assuming a cylindrical geometry, Rσ can be related to the fiber diameter, df, through: [drawing 5] 4

[3] = TEM fiber width analysis; type: physicochemical; details: log-normal fit, 700 fibers, cut-off 20 nm, hydrogels 12 mg mL^–1 peptide (0.8 mg mL^–1 polymer where loaded), pH 7, diluted 20-fold
Procedure: Hydrogels were prepared as described earlier and diluted 20-fold using HPLC-grade water. The samples were vigorously mixed with a vortex to separate as much as possible the fibers. A carbon-coated copper grid (400 mesh grid Electron Microscopy Sciences, Hatfield, Pennsylvania, USA) was glow discharged and charged negatively. The carbon copper grid was then placed sequentially on a 10 μL sample droplet for 60 s, a 10 μL droplet of HPLC grade water for 10 s three times, a 10 μL droplet of 5% uranyl acetate solution for 30 s, and finally, on a 10 μL droplet of HPLC grade water for 10 s. After each step, excess liquid was drained off using lint-free tissue (90 mm Whatman 1). The grid was then left to air-dry for 2–5 min. TEM images were taken using an FEI Tecnai12 BioTwin transmission electron microscope running at 100 kV and equipped with a Gatan Orius SC1000A CCD camera. Fiber width analysis was performed by measuring randomly the widths of 700 fiber (cut-off size 20 nm) using ImageJ software across at least three TEM images for each sample.

[4] = Hydrogel behaviour in cell culture media without cells; type: physicochemical; details: after 14 days in cell culture media (DMEM, αMEM), no cells, 37 °C
Procedure: Rheological measurements were performed using a Discovery Hybrid 2 (DHR-2) rheometer from TA Instruments (New Castle, Delaware, USA) using a 20 mm parallel plate geometry and a 500 μm gap. Samples were prepared as described earlier. Hydrogels (200 μL) were pipetted onto the rheometer’s static bottom plate and the rheometer top plate lowered to the desired gap size. For hydrogel in cell culture inserts and conditioned with cell culture media (see below), the bottom membranes of the insets were removed, and the hydrogels deposited on the rheometer’s static bottom plate. Samples were covered with a solvent trap to avoid evaporation and left to equilibrate at 37 °C for 180 s before the experiments. Strain sweep experiments were performed at 1 Hz in the 0.01–100% strain range. The shear-thinning and recovery (i.e., injectability) experiments were performed by applying sequentially a low shear strain (0.2%) for 5 min followed by a high shear strain (1000%) for 1 min and again a low shear strain (0.2%) for 5 min.
Hydrogel samples were removed from the fridge (4 °C) and prewarmed to 37 °C. Cells were encapsulated into the hydrogel by gentle pipetting to ensure an evenly mixed sample, at a final density of 1 × 10^6 cells mL^–1. 100 μL of cell-laden hydrogel was then dispensed into ThinCert inserts (Greiner Bio-One) in 24-well plates and cell culture medium (1 mL) was added into each well/insert. […]

[5] = Swelling / stability of hydrogels in excess water; type: physicochemical; details: 12 mg mL^–1 peptide, 0.8 mg mL^–1 polymer where loaded, 1 mL gel + 3 mL HPLC grade water
Procedure: Hydrogels were prepared as described earlier at 12 mg mL^–1, and 1 mL was transferred into 5 mL cylindrical glass vials. Vials were gently tapped on the bench to eliminate any bubbles and obtained flat surfaces, and the height of the hydrogels was measured (day 0). Three milliliters of HPLC-grade water was then added on the top of the hydrogels. After being stored the samples for 10 days at 37 °C, the vials were inverted, and the height of the hydrogels was measured once again (day 10). The swelling ratio (Q) was defined as (H1 – H0)/H0, where H0 is the height of the hydrogel at day 0 and H1 is the height of the hydrogel at day 10.

[6] = system: immortalized human bone marrow-derived MSC line (Y201); assay: 3D cell culture, PicoGreen assay; type: cell-based; details: MSCs, 3D culture, over 14 days
Procedure: (§1) 3T3 mouse fibroblast and an immortalized human bone marrow-derived MSC line (Y201)[37] were used to assess the cytocompatibility of the hydrogels. The 3T3 cells were cultured in Dulbecco’s Modified Eagle’s Medium (DMEM) (Gibco), 1% penicillin–streptomycin (Sigma–Aldrich, P0781), and 10% fetal bovine serum (Sigma–Aldrich, F9665), while the MSCs were cultured in Minimum Essential Medium Eagle (αMEM) (Sigma-Aldrich, M4526), 10% fetal bovine serum (Sigma–Aldrich, F7524), 1% antibiotic/antimycotic solution (Sigma–Aldrich, A5955), 1% GlutaMAX (Life Technologies, 35050038), and 0.01% L-ascorbic acid 2-phosphate (Sigma–Aldrich, A8960). Cells were harvested when reaching 70–80% confluency. For cell counting, the cell suspension was mixed (1:1 ratio) with a 0.4% trypan blue solution (Bio-Rad) and cell counted using an automated cell counter (Cellometer Auto 1000, Nexcelom).
(§2) Hydrogel samples were removed from the fridge (4 °C) and prewarmed to 37 °C. Cells were encapsulated into the hydrogel by gentle pipetting to ensure an evenly mixed sample, at a final density of 1 × 10^6 cells mL^–1. 100 μL of cell-laden hydrogel was then dispensed into ThinCert inserts (Greiner Bio-One) in 24-well plates and cell culture medium (1 mL) was added into each well/insert. 250 μL was added to the top of the hydrogel surface in the inset, and 750 μL was added to the well. Cell culture plates were then incubated at 37 °C with 5% of the CO2. The growth medium was changed every 20 min during the first hour of the experiment and subsequently every 2 days.
(§3) To quantify the number of cells present in the hydrogels, the amount of cells’ dsDNA was quantified via PicoGreen assay (Invitrogen, Thermo Fisher Scientific). […] When ready for analysis, the samples were removed from the −20 °C freezer, thawed at room temperature, and agitated until homogeneous. […] The assay plate was incubated at room temperature in the dark for 5 min then measured using a plate reader (CLARIOstar), using fluorescence detection with excitation at 480–512 nm and emission at 520 nm. […]

[7] = system: immortalized human bone marrow-derived MSC line (Y201); type: cell-based
Procedure: as §1, §2
To assess cell viability in the hydrogels, the live/dead assay (Thermo Fisher Scientific) was used. The cell culture medium was removed, and the samples were washed 3 times with DPBS. A working solution of staining reagent was prepared in DPBS (4 μM ethidium homodimer I and 2 μM calcein-AM) and 100 μL was added to the top of the hydrogel surfaces (in the insets) and a further 600 μL into the wells. […]

[8] = system: 3T3 mouse fibroblast; assay: 3D cell culture, PicoGreen assay; type: cell-based; details: 3T3 fibroblasts, 3D culture, 14 days; hydrogel prepared at 20 mg mL^–1
Procedure: as §1, §2, §3

Row | Sequence | pKa-like transition assigned to deprotonation of lysine side chain amino groups, pH from which upward [1] [pH] | first pKa-like transition (deprotonation of glutamic acid side groups), pH [1] [pH] | fibers cross-section radius of gyration, Rσ [2] [nm] | estimated fiber diameter, df [2] [nm] | fiber widths distribution maximum [3] [nm] | hydrogel integrity when extracted from cell culture inserts [4] | hydrogel stability in excess water ([5]; 10 days, 37 °C) | change in cell number (PicoGreen) [6] | cell viability (live/dead) [7] | hydrogel stability in MSC culture ([7]; after 14 days of 3D culture with MSCs) | shift of terminal NH3+ apparent pKa vs theoretical [unit] | swelling ([5]; day 10, 37 °C) | cell proliferation (cell number, PicoGreen) [8]
1 | EFKFEFKFE [E(FKFE)2] | ≥ 10.0 | ≤ 4.5 | 1.4 ± 0.2 | 4.0 ± 0.5 | 4.5 ± 0.9 | some loss of integrity and loss of shape | unstable and after 10 days dissolved | decrease in cell number | higher | dissolve | 1 | – | –
2 | KFEFKFEFK [K(FEFK)2] | ≥ 9.5 | ≤ 5 | 1.2 ± 0.2 | 3.3 ± 0.5 | 4.9 ± 1.0 | keep their integrity and shape | – | no significant change in cell number | good | – | – | ~30 % (v/v) | Significant proliferation
